Assay results from ChEMBL document CHEMBL1126306, “Inactivation of calpain by peptidyl fluoromethyl ketones” (J Med Chem, 1992).
Where a SMILES comes first, the peptide text is derived from it.

Test: The rate of inactivation expressed as second-order rate constant is independent of concentration.
Details: for kinact/KI: read-out: k2

kinact/KI | k2 | Compound
7.4e+06 M⁻¹ s⁻¹ |  | C[C@H](NC(=O)[C@H](Cc1ccc(O)cc1)NC(=O)OCc1ccccc1)C(=O)CF
17000 M⁻¹ s⁻¹ | 12000 M⁻¹ s⁻¹ | CC(C)C[C@H](NC(=O)OCc1ccccc1)C(=O)N[C@@H](Cc1ccc(O)cc1)C(=O)CF (HELM PEPTIDE1{[O=C(OCc1ccccc1)[*:2]].L.Y.[FC[*:1]]}$$$$V2.0)
